Measured values: patent US8980544B2, “Boronic and borinic acid compounds as inhibitors of sulfenic acid-containing proteins” (The Penn State Research Foundation, priority 2012, dated 2015)
Where two headings read alike, the source gives them in different places. Marks after values point to notes of the source that are not given here.

What was measured:
[1] = pKa by half-neutralization technique in acetonitrile-water; assay type: physicochemical
Description: The final volume of the solutions is 5 mL. The averaged pKa values from duplicate measurements are reported, and used for analysis.
It should be noted that the pKa values determined this way are not corrected for the change in the autoprotolysis constant of the solution due to mix solvent system.

[2] = literature value; cited from earlier work
[3] = target: T1, iron-based NHase from Rhodococcus erythropolis AJ270 (Rhodococcus erythropolis, UniProt P13448); assay: Enzymatic inhibition of nitrile hydratase (NCTB conversion, 412 nm); assay type: biochemical; settings: for Average rate (abs/min): 1 mM NCTB, 23° C.; for Rate relative to NHase: NHase without additive = 100%; for Activity: nmol thiolate product per minute per mg freeze-dried NHase powder
T1 construct: purchased Prozomix Limited
T1 sequence (P13448 1-207): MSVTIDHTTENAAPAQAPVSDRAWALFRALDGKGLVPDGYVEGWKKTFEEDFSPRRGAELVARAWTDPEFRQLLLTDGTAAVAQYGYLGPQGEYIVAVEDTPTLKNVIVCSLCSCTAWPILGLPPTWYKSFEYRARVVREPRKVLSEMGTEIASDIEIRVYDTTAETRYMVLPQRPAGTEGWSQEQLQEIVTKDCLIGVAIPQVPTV
T1 sequence (P13449 1-212 partner): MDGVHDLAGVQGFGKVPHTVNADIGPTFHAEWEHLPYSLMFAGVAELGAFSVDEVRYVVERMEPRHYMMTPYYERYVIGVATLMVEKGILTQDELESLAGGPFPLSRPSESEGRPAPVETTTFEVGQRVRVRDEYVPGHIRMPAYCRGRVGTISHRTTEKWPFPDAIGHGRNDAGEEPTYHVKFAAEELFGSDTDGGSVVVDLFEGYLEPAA
Description: Here, the catalytic efficiency of the iron-based NHase from Rhodococcus erythropolis AJ270 (purchased from Prozomix Limited, Station court, Haltwhistle, Northumberland, NE49 9HN, UK; see, proxomix.com) was assayed in the presence of a known sulfenic acid trap (dimedone) and four boronic acid derivatives. The chosen assay [Sari et al., J. Inorg. Biochem. 2007 101:614-622] was the conversion of 2-nitro-5-thiocyanatobenzoic acid (NCTB) into formamide and 5-mercapto-2-nitrobenzoic acid.
The freeze-dried powder from Prozomix was shipped at room temperature and stored at −20° C. upon arrival. The enzyme was reconstituted at 20 mg/mL in 50 mM phosphate buffer (pH 7.0) with 40 mM butyric acid. These were similar conditions to those described in the Prozomix protocol, the main difference being the use of phosphate buffer instead of Tris buffer; by itself, NHase prepared in Tris had the same reactivity as samples prepared in phosphate buffer. The solution was exposed to 400 W white light for 25 minutes on ice to permit for photo-reactivation of the enzyme.
The kinetic studies were conducted by diluting the stock solution of NHase into de-ionized distilled water (ddH2O) to get at about 0.33 mg/mL of freeze-dried NHase powder provided by Prozomix (used without further manipulation) in solution. Appropriate amounts of PBA (phenyl boronic acid; 2 g), BOXY ((2-hydroxylmethyl)-benzeneboronic acid hemiester; 2A), 3BrB (3-bromobenzeneboronic acid; 2d), or dimedone were added to the mixtures so that the final concentrations of the boronic acids/dimedone were 0, 0.5, 1.0, 2.0, or 2.5 mM.
After permitting the newly composed mixtures to sit at room temperature (at about 23° C.) for five minutes, NCTB was added so that the final NCTB concentration equalled 1 mM. The final volume of the mixtures was 1 mL in UV-cells with 1 cm path length. The final concentration of the phosphate buffer was 3.6 mM. The progress of the reaction (release of the thiolate product at 412 nm; extinction coefficient at 412 nm=13600/M/cm) [Sari et al., J. Inorg. […] The rates of the reaction were determined from fitting the first 4 minutes of the absorbance vs. time traces to a standard linear equation. The activity values were calculated as nmol of thiolate product generated per minute per mg of freeze-dried NHase powder. The reaction rates are reported below in Table 4, below, as averages of duplicate kinetic studies.

[4] = Spectrophotometric (UV/vis) titration of boronic acids 2 against the sodium salt of sulfenic acid 1, incl. reversibility with NaOH; settings: for Kd: read-out: Averaged Kd from spectrophotometric titrations
Description: The titration studies were performed using a Cary 100 Bio UV/vis spectrophotometer thermostated at 22° C. […] Each titration study was completed within 10 minutes.
The initial solution contained 0.8 mM of the sodium salt of 1.

[5] = 15% (v/v) acetonitrile-water mixture, 15% (v/v) acetonitrile-water, half-neutralization, averaged duplicates, Table 1, read-out: pKa in 15% acetonitrile-water at 22° C.
[6] = 70% (v/v) acetonitrile-water mixture, read-out: Averaged pKa value from half neutralization method in 70% (v/v) acetonitrile-water
[7] = 15% acetonitrile-water mixture, 15% acetonitrile-water, as listed in Table 2, read-out: pKa in 15% acetonitrile-water
[8] = complex 1:2, 70% (v/v) acetonitrile-water, 22° C.
[9] = complex 1:2, 15% (v/v) acetonitrile-water

| pKa [1, 5] | Structure (SMILES) | Average rate (abs/min) ([3]; [B]/[Dimedone] = 0.5 mM) | Rate relative to NHase ([3]; [B]/[Dimedone] = 0.5 mM) | Activity ([3]; [B]/[Dimedone] = 0.5 mM) | Average rate (abs/min) ([3]; [B]/[Dimedone] = 1.0 mM) | Rate relative to NHase ([3]; [B]/[Dimedone] = 1.0 mM) | Activity ([3]; [B]/[Dimedone] = 1.0 mM) | Average rate (abs/min) ([3]; [B]/[Dimedone] = 2.0 mM) | Rate relative to NHase ([3]; [B]/[Dimedone] = 2.0 mM) | Activity ([3]; [B]/[Dimedone] = 2.0 mM) | Average rate (abs/min) ([3]; [B]/[Dimedone] = 2.5 mM) | Rate relative to NHase ([3]; [B]/[Dimedone] = 2.5 mM) | Activity ([3]; [B]/[Dimedone] = 2.5 mM) | pKa [1, 7] | further results |
| --- | --- | --- | --- | --- | --- | --- | --- | --- | --- | --- | --- | --- | --- | --- | --- |
| 7.61 ± 0.02 | O=C1c2ccccc2C(=O)c2c(SO)cccc21 [Compound 1, anthraquinone-1-sulfenic acid, reference compound] |  |  |  |  |  |  |  |  |  |  |  |  |  | pKa [1, 6]: 8.6 ± 0.1; pKa value reported in Kice et al., J. Org. Chem. 1989 [2]: 7.51 |
| 7.39 ± 0.05 | O=[N+]([O-])c1ccc(B(O)O)cc1 [Compound 2b, 4-nitrobenzeneboronic acid] |  |  |  |  |  |  |  |  |  |  |  |  |  |  |
| 9.1 ± 0.1 | OB(O)c1ccc(Br)cc1 [Compound 2e, 4-bromo-benzeneboronic acid] |  |  |  |  |  |  |  |  |  |  |  |  |  |  |
| 9.4 ± 0.02 | OB(O)c1ccc(F)cc1 [Compound 2f, 4-fluorobenzene-boronic acid] |  |  |  |  |  |  |  |  |  |  |  |  |  |  |
| 10.13 ± 0.02 | COc1ccc(B(O)O)cc1 [Compound 2h, 4-methoxybenzeneboronic acid] |  |  |  |  |  |  |  |  |  |  |  |  |  |  |

Further lines, the compound ahead of its results:

| Structure (SMILES) | pKa [1, 5] | Average rate (abs/min) ([3]; [B]/[Dimedone] = 0.5 mM) | Rate relative to NHase ([3]; [B]/[Dimedone] = 0.5 mM) | Activity ([3]; [B]/[Dimedone] = 0.5 mM) | Average rate (abs/min) ([3]; [B]/[Dimedone] = 1.0 mM) | Rate relative to NHase ([3]; [B]/[Dimedone] = 1.0 mM) | Activity ([3]; [B]/[Dimedone] = 1.0 mM) | Average rate (abs/min) ([3]; [B]/[Dimedone] = 2.0 mM) | Rate relative to NHase ([3]; [B]/[Dimedone] = 2.0 mM) | Activity ([3]; [B]/[Dimedone] = 2.0 mM) | Average rate (abs/min) ([3]; [B]/[Dimedone] = 2.5 mM) | Rate relative to NHase ([3]; [B]/[Dimedone] = 2.5 mM) | Activity ([3]; [B]/[Dimedone] = 2.5 mM) | pKa [1, 7] | further results |
| --- | --- | --- | --- | --- | --- | --- | --- | --- | --- | --- | --- | --- | --- | --- | --- |
| OB1OCc2ccccc21 [Compound 2A, 2-(hydroxymethyl)benzeneboronic acid hemiester] | 7.8 | 0.0039 ± 0.0002 abs/min | 87% | 0.870 nmol/min/mg | 0.0034 ± 0.0002 abs/min | 74% | 0.826 nmol/min/mg | 0.00266 ± 0.00008 abs/min | 61% | 0.592 nmol/min/mg | 0.00205 ± 0.00009 abs/min | 45% | 0.502 nmol/min/mg | 7.8 | Effectiveness of NHase inhibition among the boronic acids examined ([3]; comparison of PBA, BOXY, 3BrB, 0.5-2.5 mM): most effective; pKa [1, 6]: 10.2; Averaged -log (Kd) in 15% acetonitrile-water at 22° C. [4]: 3.8 ± 0.1; Averaged -log (Kd) in 70% acetonitrile-water at 22° C. [4]: 3.90 ± 0.02; Kd [4]: 158 µM |
| OB(O)c1cccc(Br)c1 [Compound 2d, 3-Bromobenzene-boronic acid] | 8.55 | 0.0039 ± 0.0004 abs/min | 87% | 0.878 nmol/min/mg | 0.00369 ± 0.00009 abs/min | 81% | 0.903 nmol/min/mg | 0.00348 ± 0.0004 abs/min | 79% | 0.775 nmol/min/mg | 0.00319 ± 0.0007 abs/min | 69% | 0.782 nmol/min/mg | 8.48 | Averaged -log (Kd) in 70% acetonitrile-water at 22° C. [4, 8]: 4.0 ± 0.1; Kd [4, 9]: 158 µM |
| OB(O)c1ccccc1 [Compound 2g, phenylboronic acid] | 9.5 ± 0.06 | 0.0043 ± 0.0004 abs/min | 96% | 0.968 nmol/min/mg | 0.0041 ± 0.0002 abs/min | 91% | 1.006 nmol/min/mg | 0.00382 ± 0.00004 abs/min | 87% | 0.851 nmol/min/mg | 0.0038 ± 0.0001 abs/min | 83% | 0.931 nmol/min/mg | 9.38 | Averaged -log (Kd) in 70% acetonitrile-water at 22° C. [4, 8]: 3.96 ± 0.04; Kd [4, 9]: 200 µM |
| CC1(C)CC(=O)CC(=O)C1 [Dimedone, 5,5-dimethyl-1,3-cyclohexanedione, reference compound] |  | 0.00274 ± 0.00006 abs/min | 61% | 0.611 nmol/min/mg | 0.0017 ± 0.0004 abs/min | 37% | 0.406 nmol/min/mg | 0 abs/min | 0%*** | 0 nmol/min/mg | 0 abs/min | 0% | 0 nmol/min/mg |  |  |
